{"source": "patent US11760784B2", "about": "“Compositions comprising PEDF-derived short peptides and uses thereof” (BRIM Biotechnology, Inc., priority 2016, dated 2023)", "key": {"[1]": {"system": "GSH in rabbit corneal epithelial cells", "experiment": "Glutathione (GSH) level (OPA probe) in NaCl-treated corneal epithelial cells", "assay_type": "cell-based", "conditions": "10 μM PDSP, isotonic medium, compared to untreated", "description": "We therefore examined the effects of PDSP on the intracellular ROS and GSH levels in NaCl-treated (HOP) rabbit corneal epithelial cells. Briefly, rabbit corneal epithelial cells were pretreated with 10 μM PDSP or a negative control peptide (ConP) for 20 hours, followed by treatment with NaCl to induce hyperosmotic stress. After NaCl treatment for another 24 hours, cells were assessed for ROS using a 2′,7′-dichlorodihydrofluorescein diacetate (H2DCFDA) probe, which is an ROS indicator dye. H2DCFDA can diffuse into cells, where its acetate ester linkages are cleaved by intracellular esterases and be oxidized by ROS, which converts the nonfluorescent dichlorodihydrofluorescein diacetate (H2DCFDA) to highly fluorescent […] (DCF).\nLimbal stem cells were isolated from 6-month-old New Zealand white rabbits and continuously cultivated for 14 days by DMEM/F-12 basal medium based cell-suspension culture to achieve corneal-liked epithelial cell differentiation as previously described (Ho et al., 2013). […]\nThe GSH levels were quantified using a Glutathione Assay Kit (BioVision Research Products, Mountain View, Calif.) according to the manufacturer's recommendations. […] The fluorescence was read at 340 nm for excitation and 420 nm for emission on a SPECTRAmax GEMINI XS fluorescence microplate spectrophotometer (Molecular Devices, Sunnyvale, Calif.)."}, "[2]": {"system": "MMP-9 activity", "experiment": "MMP-9 activity by gelatin zymography in NaCl-treated corneal epithelial cells", "assay_type": "cell-based, rabbit", "conditions": "PDSP pretreatment 20 hours, then hyperosmotic medium (463 mOsM) 24 hours", "description": "Limbal stem cells were isolated from 6-month-old New Zealand white rabbits and continuously cultivated for 14 days by DMEM/F-12 basal medium based cell-suspension culture to achieve corneal-liked epithelial cell differentiation as previously described (Ho et al., 2013). To induce ROS or MMP-9 activity caused by hyperosmotic stress, cells were incubated overnight in hypertonic media (463 mOsm) achieved by addition of 90 mM NaCl. Cells cultured in DMEM/F-12 basal medium (309 mOsm) was used as negative control. To detect the preventive effect on hyperosmotic stress-induced ROS or MMP-9 activity, cells were pretreated with 10 μM PDSP for 20 hours before the treatment of NaCl.\nTo detect MMP-9 activity, 10 μL of culture medium was used to perform gelatin zymography as previous described method (Li et al., 2004). The band intensity was evaluated in zymography with a model GS-700 imaging densitometer (Bio-Rad Laboratories, Hercules, Calif.) and analyzed using Labworks 4.0 software.\nTo investigate the effect of PDSP on hyperosmotic stress-induced MMP-9 expression in corneal epithelial cells, cells were pretreated with the PDSP or control peptide (ConP) for 20 hours and then exposed the cells to hyperosmotic medium (463 mOsM) for another 24 hours. […] However, the PDSP pretreatment repressed the MMP-9 mRNA expression by a factor of 2-fold."}, "[3]": {"system": "MCP-1 mRNA", "experiment": "Ocular MCP-1 mRNA by quantitative real-time PCR in CEC dry eye mice", "assay_type": "in vivo, C57BL6 mice", "conditions": "CEC 14 days, then topical PDSP for 5 days", "description": "Dry eye is associated with abnormalities in the pre-corneal tear film and subsequent inflammatory changes in the entire ocular surface including the adnexa, conjunctiva and cornea. (see, Hessen et al., “Dry eye: An Inflammatory Ocular Disease,” J. Ophthalmic Vis. Res., 2014, 9(2): 240-250). Therefore, the effects of PDSPs in corneal inflammatory responses were next examined. Briefly, C57BL6 mice were housed in CEC for 14 days (Day 0) and then treatment with PDSP or vehicle were performed for additional 5 days (Day 5). Then, mRNA levels for inflammatory factors were evaluated by quantitative real-time PCR.\nThe total RNA was extracted from cells using TRIzol (Invitrogen) and treated with RNase free DNase I (Qiagen, Santa Clarita, CA) to remove genomic DNA and then purified with an RNA purification kit (Dynabeads; Invitrogen). […] Quantitative real-time PCR was performed in a GeneAmp 7700 sequence detection system (Applied Biosystems, Foster City, CA). […] All determinations were measured in triplicate. The cycle threshold (Ct) values corresponded to the PCR cycle number at which fluorescence emission in real time reaches a threshold above the base-line emission were analyzed using GeneAmp 7700 SDS software. The Ct value of the PCR product of interest and a control mRNA (GAPDH) were then used to calculate relative quantities of mRNA between samples."}, "[4]": {"system": "4-HNE", "experiment": "4-HNE immunohistochemistry (lipid peroxidation) in cornea and conjunctiva of CEC mice", "assay_type": "in vivo", "conditions": "PDSP from beginning of 14 days in CEC", "from_the_text": "For this test, mice were housed in CEC for 14 days and the PDSP treatment started at the beginning of housing in CEC. Then, the production of oxidative stress products (e.g., 4-hydroxy-2-nonenal, 4-HNE) was examined. 4-HNE was found throughout animal tissues, and in higher quantities during oxidative stress due to the increase in the lipid peroxidation. 4-HNE contains a reactive aldehyde, which may modify proteins. The 4-HNE-modified proteins may be detected with antibodies specific for the 4-HNE moiety.\nOxidative stress-induced lipid peroxidation was assessed by immunohistochemical detection of 4-hydroxy-2-nonenal (4HNE) in the cornea and conjunctiva. Formalin-fixed, paraffin-embedded eye specimens were deparaffinized in xylene and rehydrated in a graded series of ethanol concentrations. Slides were blocked with 10% goat serum for 60 min and then incubated with primary antibody against 4-HNE (1:100 dilution) (ab46545, Abcam) 4 hours at room temperature. The slides were subsequently incubated with the appropriate peroxidase-labeled goat immunoglobulin (1:500 dilution; Chemicon, Temecula, Calif.) for 20 min and then incubated with chromogen substrate (3,3′-diaminobenzidine) for 2 min before counterstaining with hematoxylin."}, "[5]": {"system": "desiccating stress-induced dry eye", "experiment": "Corneal fluorescein staining in desiccating stress-induced dry eye (CEC) mice", "assay_type": "in vivo, C57BL/6 mice", "conditions": "CEC 14 days, then peptide for 3 days (FIG. 11)"}}, "data": [{"substance": "PDSP: 29mer, residues 93-121 of human PEDF: SLGAEQRTESIIHRALYYDLISSPDIHGT (SEQ ID NO:4) (listed as Homo sapiens)", "values": [{"measurement": "GSH level without HOP stress (peptide alone)", "setting": "[1]", "result": "slight increase"}, {"measurement": "repression of MMP-9 activity (gelatin zymography)", "setting": "[2]", "result": 3, "unit": "fold"}, {"measurement": "repression of ocular MCP-1 mRNA expression compared to vehicle-treated group", "setting": "[3]", "result": 1.7, "unit": "fold"}, {"measurement": "4-HNE signal in the conjunctiva", "setting": "[4]; versus vehicle", "result": "4-HNE signal was clearly stronger in vehicle-treated eyes than in eyes subjected to the PDSP treatment"}, {"measurement": "number of cells positively stained for 4-HNE in corneal epithelia", "setting": "[4]; NS 1.9±0.6, vehicle 20.1±1.4", "result": "5.3±1.0"}, {"measurement": "corneal damage by corneal fluorescein staining, human vs mouse 29mer", "setting": "[5]", "result": "protection from corneal surface damages"}, {"measurement": "corneal damage by corneal fluorescein staining, human vs mouse 29mer", "setting": "[5]; listed as human PDSP", "result": "capable of restore the ocular surface damages"}]}]}
